Test results taken from patent US8143228B2, “Agents capable of downregulating an MSF-A dependent HIF-1α and use thereof in cancer treatment” (Medical Research Fund of Tel Aviv Sourasky Medical Center, priority 2004, dated 2012).
Where a SMILES comes first, the peptide text is derived from it. The star is where a group is joined. Cbz = O=C(OCc1ccccc1)*

System: HIF-1α and Ub-HIF-1α
Assay: Proteasome inhibition and HIF-1α ubiquitination, Western blot
Type: cell-based
Conditions: PC-3-Neo cells, 4 hours, 5 and 20 μM
Protocol: FIGS. 19a-b are Western blot analyses depicting the effect of proteasome inhibition on HIF-1α (FIG. 19a) or actin (FIG. 19b) expression levels in PC-3-MSF-A or PC-3-Neo cells. PC-3-Neo (lanes 1-3) and PC-3-MSF-A (lanes 4-6) cells were treated for 4 hours with either 0.1 DMSO (lanes 1 and 4) or with 5 (lanes 2 and 5) and 20 (lanes 3 and 6) μM MG-132. Whole cell lysates were prepared and equal amounts of protein from each cell lysate were resolved by SDS-PAGE, transferred and immunoblotted with antibodies against HIF-1α (FIG. 19a) and actin (FIG. 19b). Ub-HIF-1α points to ubiquitinated HIF-1α protein species.
FIGS. 20a-b are Western blot analyses of HIF-1α immunoprecipitates depicting the expression level of HIF-1α (FIG. 20a) and ubiquitin (FIG. 20b) in PC-3-Neo and PC-3-MSF-A cells. PC-3-Neo (lanes 1-2) and PC-3-MSF-A (lanes 3-4) cells were treated for 4 hours with either 0.1 DMSO (lanes 1 and 3) or with 10 μM MG-132 (lanes 2 and 4). Whole cell lysates were prepared and subjected to immunoprecipitation (IP) with HIF-1α antibody. Immunoprecipitates were resolved on SDS-PAGE and immunoblotted (IB) with HIF-1α (FIG. 20a) and ubiquitin (FIG. 20b) antibodies. Ub-HIF-1α points to ubiquitinated HIF-1α protein species.
To study the ubiquitination of the endogenous HIF-1α in cells over-expressing MSF-A protein, the proteasome inhibitor MG-132 was used. […]

## CC(C)C[C@@H](C=O)NC(=O)[C@H](CC(C)C)NC(=O)[C@H](CC(C)C)NC(=O)OCc1ccccc1 [MG-132] (Cbz-Leu-Leu-Leu-aldehyde)
  expression of HIF-1α and Ub-HIF-1α: induced the expression of HIF-1α and Ub-HIF-1α
